# Laboratory results from patent publication US20250270321A1, “METHODS OF TREATING LUNG CANCER BY ADMINISTERING A PD-1 INHIBITOR” (priority 2021, published 2025).
# Values joined by “and” are separate entries in the source; they are usually repeats but may differ in a detail not shown here. Equal values may be shown once. “Also recorded” adds a separate entry of the source. Marks after values point to notes of the source that are not given here.
# How the values were obtained:
# advanced NSCLC = details: in vivo
# [1] = test system: advanced NSCLC with PD-L1 ≥50% and clinically stable treated brain metastases; assay: EMPOWER-Lung 1 post-hoc patient reported outcomes (EORTC QLQ-C30/QLQ-LC13) in brain metastases subgroup; format: in vivo, human
# Description: Patient Reported Outcomes (PROs): Post-hoc exploratory analyses were conducted to evaluate PROs in this subgroup of aNSCLC patients with PD-L1 ≥50% and clinically stable treated brain metastases at baseline. PROs were assessed at baseline and day 1 of each treatment cycle for the first 6 cycles, and then on day 1 of every third cycle using EORTC QLQ-C30 and QLQ-LC13 questionnaires. Higher scores indicate better functioning, global health status (GHS)/quality of life (QoL), or worse symptom severity. Mixed model for repeated measures analyses were performed to compare overall change from baseline scores between the two treatment arms, while controlling for baseline characteristics. The baseline PRO scores of the cemiplimab arm were broadly similar with the chemotherapy arm.
# [2] = test system: locally advanced NSCLC (laNSCLC) with PD-L1 ≥50%; assay: EMPOWER-Lung 1 subgroup analysis: patients with locally advanced NSCLC; format: in vivo, human
# Text: Methods: […] Patients with locally advanced non-small cell lung cancer ([…]) were those with Stage IIIB/IIIC disease who were not candidates for definitive concurrent chemoradiotherapy. Study Design: Key eligibility criteria included: (i) treatment-naïve advanced NSCLC; […] (iii) no EGFR, ALK, or ROS1 mutations; […] Stratification factors included: histology (squamous vs non-squamous) and region (Europe, Asia, or ROW). Primary endpoints: OS and PFS. Secondary endpoints: ORR (key), DOR, HRQoL, and safety. The patients had locally advanced NSCLC, including those with Stage IIIB/IIIC disease who were not candidates for treatment with definitive concurrent chemoradiotherapy or had recurred after initial treatment with concurrent chemoradiotherapy.
# [3] = test system: advanced NSCLC with PD-L1 ≥50%; assay: EMPOWER-Lung 1 patient-reported symptoms, functioning and QoL (EORTC QLQ-C30/QLQ-LC13), ITT population; format: in vivo, human; details: for Definitive deterioration on key symptoms (dyspnea, cough, pain in chest, pain in other body parts, fatigue, nausea/vomiting, appetite loss, constipation, diarrhea): all P<0.05
# Text: Methods: EMPOWER-Lung 1 was a multicenter, open-label, randomized, controlled, Phase III, pivotal clinical trial of cemiplimab in adults (≥18 years) with: […] (ii) ECOG performance status ≤1; (iii) adequate organ and bone marrow function; and (iv) adequately treated clinically stable brain metastases (historically underrepresented in clinical trials) were allowed to enroll. […] In the intent-to-treat population, mixed-effects repeated measures models (mixed-model repeat measures, MMRM) were used to estimate least squares (LS) mean change from BL on all scales. Follow-up assessment was conducted 14 to 30 days after the last study treatment administration if a patient discontinued, or 14 to 30 days (±7 days) after the last cycle visit if the patient completed treatment. […] Scores range from 0 to 100; high scores on functional domains and low scores on symptoms reflect better outcomes. The QLQ-LC13 is a patient-reported outcome measure that assesses lung cancer disease- and treatment-specific symptoms during the past week. Scores range from 0 to 100; higher scores reflect higher symptom levels. […] MMRM analysis was used to estimate LS mean change from baseline on all scales among patients with a baseline and at least one post-baseline score. […] Hazard ratios (HRs) with 95% confidence intervals (95% CIs) were derived from the survival analyses to determine the likelihood of definitive deterioration. Analyses were based on the intention-to-treat (ITT) population consisting of all randomized patients.
# [4] = test system: advanced NSCLC with PD-L1 ≥50% and brain metastases; assay: EMPOWER-Lung 1 phase 3 subgroup analysis: clinical outcomes in patients with treated stable brain metastases; format: in vivo, human
# Text: Primary Endpoints: The primary endpoints are OS and PFS (per RECIST 1.1, Eisenhauer 2009). Overall survival is defined as the time from randomization to the date of death. A patient who has not died is censored at the last known date of contact. Progression-free survival is defined as the time from randomization to the date of the first documented tumor progression or death due to any cause. Patients are censored according to the following rules: […] Secondary Endpoints: A key secondary endpoint in the study is ORR. Objective response rate is defined as the number of patients with a best overall response (BOR) of confirmed CR or PR divided by the number of patients in the efficacy analysis set. Best overall response is defined as the best overall response (per RECIST 1.1) between the date of randomization and the date of the first objectively documented progression or the date of subsequent anti-cancer therapy, whichever comes first. Other secondary endpoints include DOR and QOL. Duration of response is defined as the time between the date of first response (CR or PR) to the date of the first documented tumor progression (per RECIST 1.1) or death due to any cause. Quality of life is measured by EORTC QLQ-C30 and […]. Further secondary endpoints also include the safety and tolerability of cemiplimab. To evaluate the safety and tolerability of cemiplimab versus platinum-based chemotherapies, safety and tolerability are measured by the incidence of AEs, serious adverse events (SAEs), deaths, and laboratory abnormalities to assess immunogenicity (ADA/Nabs) to cemiplimab and any relationship with drug concentrations, efficacy and safety. Methods: The design of this study is illustrated in FIG. 1. […] Tumor response to therapy was assessed according to RECIST 1.1, measured by CT or MRI. […] All patients received local therapy and needed to be neurologically stable before joining the trial. In patients with a known history of treated brain metastases at baseline, CT or MRI of the brain with contrast (unless contraindicated) was performed at screening (except if performed within 60 days prior to screening). Additional sites of known disease (including CNS) were also imaged at screening. During the treatment and follow-up period, surveillance imaging of the brain was performed every 18 weeks for year 1, and every 24 weeks for year 2, or sooner if clinically indicated.
# [5] = test system: advanced NSCLC (aNSCLC) with PD-L1 ≥50%; assay: EMPOWER-Lung 1 phase 3 study, cemiplimab monotherapy vs platinum-doublet chemotherapy, OS and PFS; format: in vivo, human; details: cemiplimab monotherapy versus platinum-doublet chemotherapy
# Text: Additional objectives include further characterization of tumor responses, patient-reported outcomes, safety, and pharmacokinetics (PK). Objectives: […] Progression-free survival, the time to tumor progression (based on Response Evaluation Criteria in Solid Tumors version 1.1 [RECIST 1.1] criteria [Eisenhauer) 2009]) or death, was chosen as a primary endpoint because PFS is recognized as a marker of clinical benefit. […] Disease progression will be determined based on the RECIST 1.1 criteria (Eisenhauer 2009). […] A secondary objective of the study includes comparing the ORR of cemiplimab versus platinum-based chemotherapies. Primary Endpoints: The primary endpoints are OS and PFS (per RECIST 1.1, Eisenhauer 2009). Overall survival is defined as the time from randomization to the date of death. A patient who has not died is censored at the last known date of contact. Progression-free survival is defined as the time from randomization to the date of the first documented tumor progression or death due to any cause. Patients are censored according to the following rules: […] Study Design: […] […] Safety is assessed through the occurrence of TEAEs, vital sign evaluation, physical examination, and laboratory analyses. […] […]
# [6] = cemiplimab n=45, chemotherapy n=42
# [7] = cemiplimab n=45, chemotherapy n=42, listed as cemiplimab
# [8] = Cemiplimab minus chemo, QLQ-C30, ITT
# [9] = cemiplimab vs chemotherapy, ITT
# [10] = after baseline, brain metastases subgroup, n=34 per arm
# [11] = brain metastases subgroup, n=34 per arm
# [12] = brain metastases subgroup, cemiplimab vs chemotherapy
substance,measurement,setting,value
cemiplimab,"Patients with ≥1 PRBC transfusions, %",advanced NSCLC,1.1%
same,"Patients with ≥1 platelet transfusions, %",advanced NSCLC,0.3%
same,SAE-associated hospitalization rate,advanced NSCLC,33.2 per 100 patient-years
same,Difference in overall change from baseline in appetite loss,[1]; cemiplimab versus chemotherapy,−7.43
same,Difference in overall change from baseline in emotional functioning,[1]; cemiplimab versus chemotherapy,7.27
same,Difference in overall change from baseline in role functioning,[1]; cemiplimab versus chemotherapy,8.59
same,Difference in overall change from baseline in symptoms of fatigue,[1]; cemiplimab versus chemotherapy,−8.19
same,"Overall change from baseline in GHS/QOL, difference cemiplimab versus chemotherapy",[1]; mixed model for repeated measures,9.35
same,12-month OS,[2]; FIG. 9,78.5%
same,12-month PFS,[2]; FIG. 10,38.5%
same,"Best overall response: CR, %",[2]; [6],(2.2) %
same,"Best overall response: Non-evaluable, %",[2]; [6],(17.8) %
same,"Best overall response: PD, %",[2]; [6],(15.6) %
same,"Best overall response: Partial response, %",[2]; [6],(42.2) %
same,"Best overall response: Stable disease, %",[2]; [6],(22.2) %
same,"ORR, %",[2]; [6],(44.4) %
same,"PFS, median",[2]; [6],8.4 months
same,"ORR, %",[2]; [7],44% and 44.4%
same,"OS, median",[2]; [7],not yet reached
same,ORR odds ratio (95% CI),[2]; cemiplimab vs chemotherapy,1.8 (0.7-4.2); *P = 0.20
same,OS HR (95% CI),[2]; cemiplimab vs chemotherapy,0.5 (0.2-1.1); P = 0.0875
same,PFS HR (95% CI),[2]; cemiplimab vs chemotherapy,0.5 (0.3-0.9); P = 0.0153
same,Reduction in the risk of disease progression,[2]; cemiplimab vs chemotherapy,51%
same,PFS HR (95% CI),"[2]; cemiplimab vs chemotherapy, listed as cemiplimab",0.49
same,"KM estimated DOR, median","[2]; responders: cemiplimab n=20, chemotherapy n=13",12.5 months
same,Difference in LS mean change from BL (95% CI): Cognitive functioning,[3]; [8],2.5 (0.4-4.5)*
same,Difference in LS mean change from BL (95% CI): Emotional functioning,[3]; [8],3.4 (1.0-5.9)*
same,Difference in LS mean change from BL (95% CI): GHS/QoL,[3]; [8],5.4 (2.7-8.1)*
same,Difference in LS mean change from BL (95% CI): Physical functioning,[3]; [8],4.2 (1.6-6.7)*
same,Difference in LS mean change from BL (95% CI): Role functioning,[3]; [8],3.3 (0.2-6.3)*
same,Difference in LS mean change from BL (95% CI): Social functioning,[3]; [8],5.2 (2.5-7.9)*
same,LS mean change (SE) from baseline in GHS/QOL across all timepoints,"[3]; MMRM analysis, EORTC QLQ-C30, C2 to C15",7.1 (1.0)
same,"Definitive deterioration on key symptoms (dyspnea, cough, pain in chest, pain in other body parts, fatigue, nausea/vomiting, appetite loss, constipation, diarrhea)",[3]; cemiplimab versus chemotherapy,lower likelihood of definitive deterioration
same,"Definitive deterioration on key symptoms (dyspnea, cough, pain in chest, pain in other body parts, fatigue, nausea/vomiting, appetite loss, constipation, diarrhea)","[3]; cemiplimab versus chemotherapy, listed as cemiplimab",significantly lower risk of definitive deterioration
same,Definitive deterioration of treatment-related symptoms of peripheral neuropathy and alopecia,"[3]; cemiplimab versus chemotherapy, both P<0.05",lower likelihood of definitive deterioration; also recorded: lower risk of definitive deterioration
same,HR (95% CI) for definitive deterioration: Cognitive functioning,[3]; [9],0.64 (0.44-0.93)*
same,HR (95% CI) for definitive deterioration: Emotional functioning,[3]; [9],0.49 (0.30-0.79)*
same,HR (95% CI) for definitive deterioration: GHS/QoL,[3]; [9],0.73 (0.52-1.03)
same,HR (95% CI) for definitive deterioration: Physical functioning,[3]; [9],0.59 (0.42-0.84)*
same,HR (95% CI) for definitive deterioration: Role functioning,[3]; [9],0.65 (0.46-0.92)*
same,HR (95% CI) for definitive deterioration: Social functioning,[3]; [9],0.50 (0.35-0.72)*
same,"CNS intracranial disease progression, % of patients",[4]; [10],5.9%
same,"CNS intracranial disease progression, patients",[4]; [10],two
same,"Best overall tumor response: Complete response, %",[4]; [11],(8.8) %
same,"Best overall tumor response: Non-evaluable, %",[4]; [11],(11.8) %
same,"Best overall tumor response: Partial response, %",[4]; [11],(32.4) %
same,"Best overall tumor response: Progressive disease, %",[4]; [11],(20.6) %
same,"Best overall tumor response: Stable disease, %",[4]; [11],(26.5) %
same,"Extra-CNS disease progression, % of patients",[4]; [11],26.5%
same,"Extra-CNS disease progression, patients",[4]; [11],9 patients
same,"Intracranial disease progression due to a new tumor, % of patients",[4]; [11],2.9%
same,"Intracranial disease progression due to a new tumor, patients",[4]; [11],one
same,"Intracranial disease progression due to an existing tumor, % of patients",[4]; [11],5.9%
same,"Intracranial disease progression due to an existing tumor, patients",[4]; [11],two
same,ORR,[4]; [11],41.2%
same,"OS, median","[4]; brain metastases subgroup, n=34 per arm, cemiplimab 350 mg IV Q3W or investigator's choice chemotherapy",18.7 months
same,ORR,"[4]; brain metastases subgroup, n=34 per arm, listed as cemiplimab",41.2%
same,"PFS, median","[4]; brain metastases subgroup, n=34 per arm, per independent review committee",10.4 months
same,ORR odds ratio (95% CI),[4]; [12],6.9 (1.7-27.8); P = 0.0034*
same,OS HR (95% CI),[4]; [12],0.17 (0.04-0.76); P = 0.0091
same,PFS HR (95% CI),[4]; [12],0.45 (0.22-0.92); P = 0.0231
same,Median KM estimation of brain metastasis PFS,"[4]; cemiplimab versus chemotherapy, FIG. 4",superior
same,Overall survival hazard ratio,[5],0.57
same,Progression-free survival hazard ratio,[5],0.54
